Measured values taken from PubChem BioAssay (NCI).
Values joined by “and” are separate entries in the source; they are usually repeats but may differ in a detail not shown here. Equal entries are not always repeated.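 Dose response: 5 concentrations. Exposure: 48 h. Format: 96-well plates. Endpoint: linear interpolation; highest concentration if not reached. At the GI50, growth is halved. TGI is the concentration that stops growth completely.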

Legend:
Assay in all cases: NCI-60 cell line screen, 48 h
HL-60(TB) leukemia = tested on: HL-60(TB) leukemia
MOLT-4 leukemia = tested on: MOLT-4 leukemia
HOP-92 NSCLC = tested on: HOP-92 NSCLC
LXFL 529 NSCLC = tested on: LXFL 529 NSCLC
CCRF-CEM leukemia = tested on: CCRF-CEM leukemia
SK-MEL-28 melanoma = tested on: SK-MEL-28 melanoma
HOP-18 NSCLC = tested on: HOP-18 NSCLC
COLO 205 colon = tested on: COLO 205 colon
CAKI-1 renal = tested on: CAKI-1 renal
SK-OV-3 ovarian = tested on: SK-OV-3 ovarian

SMILES	TGI (HL-60(TB) leukemia)	TGI (MOLT-4 leukemia)	TGI (HOP-92 NSCLC)	TGI (LXFL 529 NSCLC) [µM]	TGI (CCRF-CEM leukemia)	TGI (SK-MEL-28 melanoma)	TGI (HOP-18 NSCLC)	TGI (COLO 205 colon) [µM]	TGI (CAKI-1 renal) [µM]	TGI (SK-OV-3 ovarian)	GI50 (MOLT-4 leukemia) [µM]	GI50 (HOP-92 NSCLC) [µM]	GI50 (LXFL 529 NSCLC) [µM]	GI50 (CCRF-CEM leukemia) [µM]	GI50 (SK-MEL-28 melanoma) [µM]	GI50 (COLO 205 colon) [µM]	GI50 (SK-OV-3 ovarian) [µM]	GI50 (HL-60(TB) leukemia) [µM]	GI50 (CAKI-1 renal) [µM]	GI50 (HOP-18 NSCLC) [µM]
Cc1c2ccn(O)cc2c(C)c2c1nc1ccccc12	38.3 µM	16.8 µM	38.5 µM	> 100	> 60.1 µM	> 100 µM	99.4 µM	> 100	> 51.7	39.6 µM										
Cc1n[nH]c(=S)n(C)c1=S		> 100 µM	> 100 µM	> 100	> 100 µM	> 100 µM	> 100 µM	> 100		> 100 µM										
COC(=O)c1ccccc1N(C(=O)c1ccccc1)c1ccccc1C	43.1 µM	54.6 µM		> 100	83.5 µM	> 100 µM	> 100 µM	54.5	> 100	69.1 µM										
CCOC(=O)C(=O)Nc1nc2c(OCC)cccc2s1	> 100 µM	> 100 µM	> 100 µM	> 100		> 100 µM	> 100 µM	> 100	> 100	> 100 µM										
N.N.N.N.N.NC(=O)[O-].[Co+3].[I-]		> 100 µM	> 100 µM	> 100	> 100 µM	> 100 µM		> 100		> 100 µM	> 100	> 100	> 100	> 100	> 100	> 100	> 100			
CC(C)N(O)C(=N)c1ccccc1	> 100 µM		> 100 µM	> 100		> 100 µM	0.849 µM		> 100											
Cc1ccc(-c2nc3ccccc3c(=O)n2NCC2(O)OCC(O)C(O)C2O)cc1 (stereo unspecified)	> 100 µM	> 100 µM		> 100	> 100 µM	> 100 µM		> 100	> 100	> 100 µM										
C=C(CO)CC(O)c1cc(OC)ccc1OC (stereo unspecified)	> 100 µM	> 100 µM	> 100 µM	> 100	> 100 µM	> 100 µM		> 100	> 100	> 100 µM										
C[C@]12CCC(=O)C(OC(=O)c3ccc([N+](=O)[O-])cc3)=C1CCC2=O	> 100 µM	> 100 µM	> 100 µM	> 100	> 100 µM	> 100 µM	> 100 µM	> 100	> 100	> 100 µM										
COc1cc(OC)c(C(=O)c2cccs2)cc1N		> 100 µM		> 100	> 100 µM	> 100 µM	86.8 µM	> 100	> 100	> 100 µM										
CN1CN(C2OC(CO)C(O)C2O)c2nc(N)[nH]c(=O)c21 (stereo unspecified)	> 100 µM	> 100 µM	> 100 µM	> 100			> 100 µM	> 100	> 100	> 100 µM										
COc1cc(/C=C(\NC(=O)c2ccccc2)c2nc3ccc4c(c3[nH]2)C(=O)c2ccccc2C4=O)cc(OC)c1OC		43 µM	> 100 µM	> 100	> 100 µM	> 100 µM		> 100	> 100	95.6 µM										
N#CC(C(=O)C(=O)Nc1ccccc1)c1ccccc1 (stereo unspecified)	> 100 µM	> 100 µM	> 100 µM	> 100	> 100 µM	> 100 µM			> 100	> 100 µM										
O=C1C(=O)N(c2ccc(Cl)cc2)C(=O)C(=O)C1c1nc2ccccc2o1	> 100 µM	> 100 µM	> 100 µM	> 100	> 100 µM	> 100 µM		> 100	> 100	> 100 µM										
O=C(O)C[C@@H](Cl)[C@H](NC(=O)OCc1ccccc1)C(=O)O	> 100 µM	> 100 µM	> 100 µM	> 100	> 100 µM	> 100 µM	> 100 µM	> 100	> 100	> 100 µM										
BrC(Br)=C1C(=C(Br)Br)C(Br)C1Br (stereo unspecified)			2.96 µM	1.85	1.6 µM	3.06 µM	9.19 µM	2.59	0.898	12.7 µM										
CCC(=O)N1C(=O)OCC1C(C)C (stereo unspecified)	> 100 µM	> 100 µM	> 100 µM	> 100	> 100 µM		> 100 µM	> 100	> 100	> 100 µM										
CC(C)C12Cc3c(ccc4ccccc34)OC1(C)Oc1ccc3ccccc3c1C2 (stereo unspecified)		> 100 µM	> 100 µM	> 100	> 100 µM			> 100	> 100	> 100 µM										
N/N=C1\C(=O)N(Cc2ccccc2)C(=O)C1C(=O)NCc1ccccc1 (stereo unspecified)	> 100 µM	> 100 µM	> 100 µM	> 100	> 100 µM	> 100 µM	> 100 µM	> 100												
CN(C)CCCN(CCC1CCCCC1)CCC1CCCCC1	9.88 µM	7.93 µM	9.7 µM		6.38 µM	1.18 µM		3.36	8.06	21.5 µM	1.85	1		1.72	0.593	1.48	7.68	2.09	2.65	
CO[C@H]1C=CO[C@@]2(C)Oc3c(C)c(O)c4c(O)c(c(CN5CCN(C)CC5)c(O)c4c3C2=O)NC(=O)/C(C)=C\C=C[C@H](C)[C@H](O)C(C)[C@@H](O)C(C)[C@H](OC(C)=O)[C@@H]1C (stereo partly specified)	83.7 µM	49.1 µM	> 100 µM		22.3 µM	> 100 µM		25.2	> 100	> 100 µM										
O=C(/C=C/c1ccc(Cl)cc1)c1ccccc(=O)c1O	2.04 µM	16.2 µM	17 µM		0.773 µM	26.4 µM		6.53	2.79	16.6 µM										
O=S(=O)([O-])c1ccc(N=Cc2ccccc2[O-])cc1.O=S(=O)([O-])c1ccc(N=Cc2ccccc2[O-])cc1.[Co+2]	> 100 µM	> 100 µM	> 100 µM		> 100 µM	> 100 µM	> 100 µM	> 100		> 100 µM	21.7	52.1		15.5	59.5	> 100	36.6	40.1		85.5
O=c1oc2ccc(I)cc2c(=O)n1-c1ccc(F)cc1F	5.12 µM	6.88 µM	3.78 µM		19.2 µM	6.25 µM		13.1	6.6	4.17 µM	2.39	0.7		3.24	1.76	3.39	1.16	2.04	1.8	
CC(=O)O[C@H]([C@H](OC(C)=O)[C@H](C)OC(C)=O)[C@@H](/C=C/[C@@H]1CC=CC(=O)O1)OC(C)=O	> 100 µM	> 100 µM	61.7 µM		> 100 µM	> 100 µM		> 100	83.6	> 100 µM	> 100	17.3		41.5	40.4	33.5	> 100	> 100	29.8	
CC(CC(=O)N1C(=O)C(C)(C)[C@@H](O)[C@H]1CC(C)C(Cl)(Cl)Cl)C(Cl)(Cl)Cl (stereo partly specified)	> 100 µM	> 100 µM	> 100 µM	> 100	> 100 µM		> 100 µM	> 100	> 100	> 100 µM										
COC1C(O)CC(OC2CC(OC3CC(O[C@@H]4C(=O)c5c(cc6cc(OC7CC(OC8CC(O)C(O)C(C)O8)C(O)C(C)O7)c(C)c(O)c6c5O)CC4[C@H](OC)C(=O)O)OC(C)C3O)OC(C)C2O)OC1C (stereo partly specified)	> 33.3 µM	> 33.3 µM	> 33.3 µM		> 33.3 µM	11.7 µM		6.9	> 33.3	> 33.3 µM	2.08	4.4		3.57	1.48	1.09	2.24	5.53	2.6	
CO[C@@H]1C=C[C@@]23c4cc5c(cc4CN(C[C@@H]2O)[C@H]3C1)OCO5	39.2 µM	69.5 µM	80.6 µM	> 100	47.7 µM	> 100 µM	83.2 µM		49.1	> 100 µM										
CSCS(=O)C[C@H](CO)NC(=O)/C=C/c1c(C)[nH]c(=O)[nH]c1=O (stereo partly specified)	4.96 µM and 3.44 µM	6.73 µM and 5.09 µM	4.05 µM and 0.778 µM	7.65	8.69 µM and 4.02 µM	7.94 µM and 3.51 µM	> 30.8 µM and 5.85 µM			6.11 µM and 6.96 µM		0.815		1.46	1.89	3.16		2.23	2.74	1.22
COc1ccc(C=Nc2c(C(=O)Nc3cccc(Cl)c3C)sc3nc(C)c(C(=O)/C=C/c4ccc(OC)cc4)cc23)cc1	> 22 µM	> 50 µM	7.12 µM		> 50 µM	> 50 µM		23.8	> 50	> 50 µM	3.68	0.59		0.819	0.288	1.82	0.958	1.27	0.652	
